Where a SMILES comes first, the peptide text is derived from it. The star is where a group is joined. Succinyl(4-O-cholesteryl) = CC(C)CCC[C@@H](C)[C@H]1CC[C@H]2[C@@H]3CC=C4C[C@@H](OC(=O)CCC(=O)*)CC[C@]4(C)[C@H]3CC[C@]12C
Assays:
B16 mouse melanoma cells = assay: FAM-siRNA transfection efficiency in vitro, B16; format: cell-based; details: FAM-siRNA 1 μg, flow cytometry
Procedure: In 24 h before transfection, the C26 mouse colon cancer cells or B16 mouse melanoma cells are laid in a 6-well plate with a density of 5×10^4 cells per well, and 2 ml of DMEM medium containing 20% FBS is added to each well. FAM-modified no-sense siRNA (FAM-siRNA) is used as a reporter gene to detect transfection efficiency, while PEI25K and Lipofectamin2000 are used as positive controls. During transfection, the medium is firstly replaced with 1 ml of serum-free DMEM medium. Subsequently, the gene transfection complexes mixed at different proportions are added to each well, and each complex contains 1 μg of FAM-siRNA. Among them, the ratio of siRNA/DP7-C, siRNA/PEI25K and siRNA/Lipofectamin2000 is 1:5, 1:2 and 1:2 respectively. After the medium is incubated at 37° C. for 4 h, it is replaced by DMEM medium supplemented with 20% FBS and sequentially incubated. After 24 h, the transfection is observed under a microscope and photographed. All cells in the wells including floating and adherent cells are collected, washed twice with precooled PBS, and the total fluorescence intensity of each group is counted by flow cytometer (EPICS Elite ESP, USA).

[1] = Physical characteristics of DP7-C micelles (Malvin particle size meter, appearance); format: physicochemical
Text: We detected some physical characteristics such as particle size and Zeta potential of DP7-C micelles by the atomic force microscope and Malvin particle size meter. • 1 Atomic force microscope photography: prepare different concentrations of DP7-C solution, add to the mica sheets dropwise and dry naturally. Put the mica sheets coated with DP7-C on the atomic force microscope for photography. • 2 Detection of particle size and Zeta potential: dissolve DP7-C in Milliq water, determine particle size and Zeta potential by Malvin particle size meter, and detect each sample for four times to obtain their average value. • 3 Appearance and solution state of DP7-C: observe the appearance of MilliQ water, DP7-C water solution and lyophilized powder, and take photos with a camera; wherein, a is MilliQ water, b is DP7-C dissolved in aqueous solution, C is the state of DP7-C lyophilized powder after redissolving, and d is the shape and color of DP7-C lyophilized powder.

[2] = Critical micelle concentration by pyrene fluorescence probe spectroscopy; format: physicochemical; details: aqueous solution
Text: DP7-C can be self-assembled into micelles in aqueous solution. We detected the critical micelle concentration (CMC) of DP7-C by the pyrene fluorescence probe spectroscopy.
The fluorescence emission spectrum of pyrene in aqueous solution has five fluorescence peaks, and the ratio of the first emission spectrum light intensity I1 to the third emission spectrum light intensity I3 in aqueous solution (the ratio of fluorescence intensity at 373 nm to that at 384 nm) is about 1.8. According to the literature, the surfactant may solubilize nonpolar organic compounds, and the surfactant at different concentrations may solubilize pyrene to varying degrees. Thus, the solubilizing ability of the solution will have an obvious mutation point after the concentration of surfactant exceeds the critical micelle concentration (CMC). […] Therefore, the CMC of […] in the solution can be determined by measuring the fluorescence spectra of pyrene in DP7-C solutions with different concentrations. […] Then, detect I1 and I3 by a fluorescence spectrophotometer. Add different volumes of sample mother liquor to BD tubes containing trace pyrene to reach the concentrations of 0.0001, 0.001, 0.01, 0.025, 0.05, 0.10, 0.125, 0.25, 0.5, 1.0 and 1.5 mg/ml respectively, and determine the fluorescence spectra of each solution. […]

[3] = test system: Staphylococcus aureus 33591; assay: Intra-abdominally infected mouse model; format: in vivo; details: intravenous administration
Procedure: The anti-infection activity of DP7-C is determined by the intra-abdominally infected models. […]
The experimental steps are as follows: • (1) Activate Staphylococcus aureus 33591 with MHB the day before the experiment, wash the activated strains twice with normal saline on the day of the experiment, and determine the concentration of bacterial liquid for later use. • (2) To establish an abdominally infected mouse model, intraperitoneally inject the bacterial solution of 1.5×10^8 cfu/0.5 mL into each mouse. • (3) Intravenously inject the drug by group after one hour of infection, 0.1 mL/mouse. • (4) 24 h later, intraperitoneally inject 5 mL of normal saline into the mouse, gently massage the abdomen, kill the mouse and disinfect with 75% alcohol. After 5 min, scissor the abdominal cavity epithelium, make a small opening in the abdominal cavity, draw ascites as much as possible from the opening with a 1 ml syringe, and then transfer to a sterile EP tube for mixing. • (5) Dilute with normal saline at a dilution of, for example, 10×, 100×, 1000× and 10000×; take three bacterial solutions with suitable concentrations, 20 μL each, coat the MHA plate and incubate in a bacteria incubator overnight. • (6) Select a plate with 20-200 colonies and convert and calculate the amount of bacteria per milliliter in 5 milliliters of ascites.

multiple strains = assay: Antibacterial activity in vitro (MIC); format: cell-based
dendritic cells (DC) = assay: Maturation of dendritic cells (flow cytometry); format: cell-based, mouse; details: 16 h incubation; vs NS group, statistically significant
Procedure: The maturation of dendritic cells (DC) largely determines the immune response or tolerance of the body. […] Therefore, we detected the effect of DP7-C adjuvant on dendritic cell maturation by flow cytometry.
The experimental steps are as follows: • (1) Isolate C57/BL mouse primary bone marrow cells and incubate in the induced medium containing 10 ng/ml of GM-CSF and 10 ng/ml of IL-4 for 5 days. • (2) Add the DP7-C adjuvant into DC cell culture, mix well, and incubate for 16 h. • (3) Collect the stimulated DC cells, wash them twice with PBS, re-suspend the cells in 100 μL of PBS, add 1 μL of anti-mouse CD16/CD32, and block at 4° C. for 30 min. • (4) Wash with PBS for 3 times, add 1 μg of FITC-anti-CD80, APC-anti-CD86 and PE-anti-MHC-II, incubate at room temperature for 30 min, wash PBS for 3 times and re-suspend in 200 μL of PBS for flow cytometry.

[4] = Milliq water, Malvin particle size meter

CC[C@H](C)[C@H](NC(=O)[C@H](CCCNC(=N)N)NC(=O)[C@H](Cc1c[nH]c2ccccc12)NC(=O)[C@H](CCC(N)=O)NC(=O)[C@@H](NC(=O)CCC(=O)O[C@H]1CC[C@@]2(C)C(=CC[C@H]3[C@@H]4CC[C@H]([C@H](C)CCCC(C)C)[C@@]4(C)CC[C@@H]32)C1)C(C)C)C(=O)N[C@@H](CCCNC(=N)N)C(=O)N[C@H](C(=O)N[C@@H](C)C(=O)N[C@H](C(=O)N[C@H](C(=O)N[C@@H](CCCNC(=N)N)C(=O)N[C@@H](CCCCN)C(N)=O)[C@@H](C)CC)C(C)C)C(C)C [DP7-C, Chol-suc-VQWRIRVAVIRK-NH2] ({Succinyl(4-O-cholesteryl)}-VQWRIRVAVIRK-NH2)
transfection efficiency (B16 mouse melanoma cells): 53.3 ± 4.0%
Zeta potential [1, 4]: about 28.8±0.27 mV
particle size [1, 4]: about 24.3±1.5 nm
solubility in water ([1]; lyophilized powder): soluble in water
critical micelle concentration (CMC) [2]: 3.47 µg/mL
average colony forming unit (CFU) of Staphylococcus aureus ([3]; DP7-C 1 mg/kg, VAN 20 mg/kg, vs NS group, p<0.01): significantly lower than those in NS group
antibacterial effect compared with positive drug group ([3]; no statistical difference): basically the same as that of the positive drug group
MIC (multiple strains): > 1024 µg/mL
expression of MHC II, CD80 and CD86 (dendritic cells (DC)): increased

Reference: US20250249110A1, “ANTIMICROBIAL PEPTIDE DERIVATIVE AND USE THEREOF” (SICHUAN UNIVERSITY, priority 2016, published 2025)
